Source: the NIST ThermoML archive (doi:10.1016/j.tca.2012.07.024)

Assay: xn = mol fraction of the nth substance listed
Conditions: Liquid, Vibrating tube method, x1 = 0.33

C[N+](C)(C)CCO.[Cl-] [choline chloride] + OCCO
mass density [kg/m3]
Conditions | 298.15 K | 303.15 K | 308.15 K | 313.15 K | 318.15 K | 323.15 K
100 kPa | 1117.4 | 1114.5 | 1111.6 | 1108.7 | 1105.9 | 1103
5000 kPa | 1119 | 1116.1 | 1113.2 | 1110.3 | 1107.5 | 1104.7
10000 kPa | 1120.6 | 1117.7 | 1114.8 | 1111.9 | 1109.1 | 1106.3
15000 kPa | 1122.1 | 1119.3 | 1116.4 | 1113.5 | 1110.7 | 1107.9
20000 kPa | 1123.6 | 1120.8 | 1117.9 | 1115.1 | 1112.3 | 1109.5
25000 kPa | 1125.1 | 1122.3 | 1119.5 | 1116.6 | 1113.8 | 1111
30000 kPa | 1126.6 | 1123.8 | 1121 | 1118.2 | 1115.4 | 1112.6
35000 kPa | 1128.1 | 1125.3 | 1122.5 | 1119.7 | 1116.9 | 1114.1
40000 kPa | 1129.6 | 1126.8 | 1124 | 1121.2 | 1118.4 | 1115.7
45000 kPa | 1131 | 1128.2 | 1125.5 | 1122.7 | 1119.9 | 1117.2
50000 kPa | 1132.4 | 1129.6 | 1126.9 | 1124.1 | 1121.4 | 1118.7
